Assay results published in patent US20170173114A1, “METHODS AND COMPOSITIONS FOR INDUCTION OF UCP1 EXPRESSION” (Joslin Diabetes Center, Inc., priority 2014, published 2017).

Tested on: UCP1
Assay: UCP1 mRNA expression (Q-RT-PCR) in WT-1 brown preadipocytes
Format: cell-based, murine
Details: WT-1, 24 hours; vs vehicle
Experimental: Total RNA was isolated with QIAzol lysis reagent (Qiagen, Valencia, Calif.) and purified by RNeasy Mini columns (Qiagen) following the manufacture's instructions. cDNA was prepared from total RNA using the Advantage RT-PCR kit (BD Biosciences, Palo Alto, Calif.) according to manufacturer's instructions. Diluted cDNA was used in a PCR reaction with SYBR Green Master Mix (Applied Biosystems, Foster City, Calif.) and primers specifically designed for detection of the gene of interest. PCR reactions were run in duplicate for each sample and quantitated in the ABI Sequence Detection System (Applied Biosystems). Data were expressed as arbitrary units after normalization to levels of expression of internal controls for each sample. Sequences of primers for specific genes are each obtained from the published literature or designed using publically available gene sequence databases. Unless otherwise indicated, gene expression data described in the examples below was obtained using QPCR.
The effect of FGF6 on differentiation of WT-1 murine brown preadipocytes was also examined. WT-1 cells can be induced to undergo brown adipocyte differentiation, characterized by lipid accumulation and expression of adipogenic and brown fat markers, as described above (Klein et al. (1999) J Biol Chem 274:34795; Tseng et al. (2005) Nat Cell Biol 7:601). WT-1 cells were treated with FGF6 in growth media (DMEM+10% FBS), a vehicle control (“control” or “C” referred to in FIGS. 3A-D), or induction media (“induction” or “I” referred to in FIGS. 3A-D) as described above for seven days. Following the treatment, cells were examined for the color of the culture media in combination with oil Red O staining, expression of adipogenic markers, expression of brown fat markers, immunofluorescent staining of cells with UCP1 and DPAI, and Western blot analysis to determine the presence of UCP1 and β-tubulin. The results are described in FIGS. 3A to 3D.
UCP1 mRNA expression in brown adipocyte cells was determined at FGF6 concentrations ranging from 0 to 300 ng/ml in the absence of induction cocktail.
In order to determine the length of time necessary to induce UCP1 expression upon exposure to of cells to FGF6, an experiment was performed whereby FGF6 was administered to brown preadipocytes at a concentration of 200 ng/ml and UCP1 expression was determined. FGF21 and a control were also used in the time course experiment. FGF21, a member of the endocrine FGF ligands that has been implicated in the browning of white fat (Fisher F. M. et al., Genes Dev. 26:271-281, 2012). […] FGF6 could acutely induce a significant increase of UCP1 expression as early as 4 hours after a 200 ng/ml dose, as described in FIG. 4B. At 24 hours, the fold-induction of UCP1 mRNA by FGF6 reached 700-fold higher than the untreated cells, as described in FIG. 4B.
To assess FGF6's role in the regulation of mitochondrial activity, FGF6 was stably expressed in WT-1 brown preadipocytes and 3T3-F442A white preadipocytes. Stable cells were generated by viral infection followed by drug selection.
FGF2, FGF6 and FGF9 were used at a dosage of 50 ng/mL, 100 ng/mL, 200 ng/mL or 300 ng/mL. FGF21 was used at the dosage of 50 ng/ml and 500 ng/mL. The concentration of BMP7 was 3.3 nM. RNA was isolated and UCP1 and PPARγ expression levels were evaluated by quantitative reverse transcription polymerase chain reaction (Q-RT-PCR) analysis after 24 hours (i.e., 1 day) (FIG. 14A), 2 days (FIG. 14B), 5 days (FIG. 14C) and 7 days (FIG. 14D) of treatment. All experiments were performed triplicate and the data are presented as mean+/−SEM.
FGF2, FGF6 and FGF9 were used at a dosage of 200 ng/mL. FGF21 was used at a dosage of 500 ng/mL. The concentration of BMP7 was 3.3 nM. mRNA was isolated and UCP1 and PPARγ expression levels were evaluated by quantitative reverse transcription polymerase chain reaction (Q-RT-PCR) analysis after 24 hours (i.e., 1 day), 2 days, 5 days and 7 days of treatment (FIG. 15). […]

Structure (SMILES) | UCP1 mRNA expression
CCCCC[C@H](O)/C=C/[C@H]1[C@H](O)CC(=O)[C@@H]1C/C=C\CCCC(=O)O [PGE2, reference compound] | significantly induced
CCCCC[C@H](O)/C=C/[C@@H]1[C@H]2C/C(=C/CCCC(=O)O)O[C@H]2C[C@H]1O [PGI2, reference compound] | significantly induced
